This note sets out measurements from patent US12098133B2, “Hydantoin containing deoxyuridine triphosphatase inhibitors” (CV6 Therapeutics (NI) Limited, priority 2015, dated 2024).

The test system of assay [1] is colorectal (HCT116), breast (MCF-7) and non-small cell lung (H1299, A549, H358 and H460) cell line models. The assay can be described thus: Colony forming assay. The class given is cell-based. As to conditions: FUdR between 0.5 and 2.5 μmol/L; all cell lines evaluated. How it is done:
Colony forming assay showing the ability of colon (SW620, HCT116), non-small cell lung (A549, H460, H1299 and H358) and breast (MCF7) cancer cells to survive and proliferate following transient 24 hour exposure to test compounds, FUdR and combinations are determined. Specifically, cells are seeded at densities between 50 and 100 cells/well in 24-well plates. Twenty-four hours later, cells are treated with increasing concentrations of a rtest compound, a fixed dose of FUdR and combinations of these. After 24 hours, drug is removed, cells are rinsed and allowed to outgrow for 10-14 days. At the conclusion of the outgrowth, cells are fixed in 60% ice cold methanol and stained with 0.1% crystal violet, scanned and counted. Data is presented as percentage of untreated controls (mean±SD). Fraction affected and combination indexes are calculated according to the method of Chou and Talalay where <1 is indicative of a synergistic drug interaction.
Colony forming assays are performed to evaluate the effectiveness of test compounds alone and in combination with the fluoropyrimidine thymidylate synthase (TS) inhibitor fluorodeoxyuridine (FUdR) at reducing cancer cell viability in colorectal (HCT116), breast (MCF-7) and non-small cell lung (H1299, A549, H358 and H460) cell line models. […]

The subject of assay [2] is colorectal (HCT116 and SW620) cell line models. In words: MTS growth inhibition assay. It counts as cell-based. As to conditions: 5-FU between 0 and 100 μmol/L; both colorectal cancer cell lines (HCT116 and SW620). How it is done:
The Cell Titer AQueous MTS assay (Promega) is carried out according to the manufacturers guidelines. […] Fraction affected (FA) is calculated from the percent growth inhibition: FA=(100−% growth inhibition)/100.
Test compounds are evaluated for their antitumor activity in colorectal cancer cells using the MTS growth inhibition assay. HCT116 and SW620 cells are exposed to increasing concentrations of each agent for 72 hours and growth inhibition is directly compared to vehicle-treated controls. The NSCLC cell lines A549 and H1299 are exposed to increasing concentrations of each agent for 72 hours and growth inhibition is directly compared to vehicle-treated controls.
Simultaneous treatment with increasing concentrations of 5-FU and a test compound at fixed concentrations of 25 μmol/L is determined.
(Tetrazolium dyes change colour on reduction, which living cells bring about.)

For `O=c1[nH]c(=O)n([C@H]2C[C@H](O)[C@@H](CO)O2)cc1F` [FUdR, fluorodeoxyuridine], the colonies formed result in assay [1] was “dose-dependent decreases in colonies formed”.
For the compound `O=c1[nH]cc(F)c(=O)[nH]1` [5-FU, 5-fluorouracil], the growth inhibition entry in assay [2] was “dose-dependent increases in growth inhibition”.
